Reference: ChEMBL document CHEMBL1153369, “First asymmetric synthesis of CJ-14877 and its enantiomer and their interleukin-1beta inhibitory activities” (2009)

How the values were obtained:
Format in all cases: functional
PBMC [1] = test: Inhibition of LPS-induced IL1-beta production in human PBMC at 0.01 uM after 24 hrs by ELISA
PBMC [2] = test: Inhibition of LPS-induced IL1-beta production in human PBMC at 0.1 uM after 24 hrs by ELISA
PBMC [3] = test: Inhibition of LPS-induced IL1-beta production in human PBMC at 1.0 uM after 24 hrs by ELISA
PBMC [4] = test: Inhibition of LPS-induced IL1-beta production in human PBMC at 10 uM after 24 hrs by ELISA

SMILES	inhibition at 0.01 µM (PBMC [1]) [%]	inhibition at 0.1 µM (PBMC [2]) [%]	inhibition at 1 µM (PBMC [3]) [%]	inhibition at 10 µM (PBMC [4]) [%]
COC(=O)c1ccc([C@@H](O)[C@@H](C)O)cn1	9.1	4.3	10.6	-7.5
COC(=O)c1ccc([C@H](O)[C@H](C)O)cn1	-9.5	13.8	39.6	49.8
